The term IC50 denotes the concentration at which inhibition is half-maximal.

In the first assay the target is T1, recombinant human MMP-13 (Homo sapiens, UniProt P45452).
T1 construct: made in house; host or cells: baculovirus (pBlueBac4 / Bac-N-Blue; virus made in Sf9), expressed in High-Five insect cells; culture supernatant used
Nature of the assay: Assay of MMP-13 inhibiting activity (fluorogenic peptide substrate). The class given is biochemical. Particulars: Table 1; 37° C., 2 hours. An excerpt: Based on the sequence described in the literature by Freije, J. M. et al (Journal of Biological Chemistry, 269: 16766-16773, 1994) and using a PCR method known per se, a human MMP-13 cDNA was obtained.
A pBlueBac4 (Invitrogen) and a Baculovirus vector Bac-N-Blue (Invitrogen) to each of which the human MMP-13 cDNA obtained above was integrated were co-transfected to an Sf9 cell to obtain a MMP-13-expressing recombinant virus.
The recombinant virus thus obtained was infected to a High-Five cell (Invitrogen), and the culture supernatant after three days was employed as an enzyme solution. Experiment 2 Assay of MMP-13 inhibiting activity
75 μl of a sample containing the recombinant human MMP-13, 200 mM sodium chloride, 20 mM calcium chloride, 0.1% Brij 35, 1 mM 2-mercaptoethanol, 200 mM tris-HCl buffer solution (pH7.5) and a test substance at various concentrations was treated with 25 μl of 40 μM MOCAc-Pro-Leu-Gly-Leu-A2pr(DNP)-Ala-Arg-NH2 (PEPTIDE KENKYUSHO) to initiate a reaction and kept at 37° C. for 2 hours, and then 100 μl of 500 mM sodium acetate-HCl buffer solution (pH3.0) was added to terminate the reaction.
The level of liberated MOCAc-Pro-Leu-Gly was determined using a fluorophotometer (MTP-32/F2: CORONA DENKI) at the excitation wavelength of 330 nm and the fluorescent wavelength of 405 nm. The fluorescent level of the reaction in the absence of a test substance was regarded as 100%, and the concentration of each test substance required for achieving 50% inhibition was indicated as IC50.
Take “3-Mercapto-1-(4-phenoxybenzylpyrrolidine-2,5-dione [Example 1]”: the IC50 was determined as 5 nM.
The same measure, in the same setting: under `CCSC1CC(=O)N(Cc2ccc(Oc3ccccc3)cc2)C1=O` (stereo not shown) [Example 2, 3-Ethylthio-1-(4-phenoxybenzyl)pyrrolidine-2,5-dione] stands > 10000 nM.
On the same count and under the same terms, under `CCOC(=O)CCSC1CC(=O)N(Cc2ccc(Oc3ccccc3)cc2)C1=O` (stereo not shown) [Example 3, 3-[2-(Ethoxycarbonyl)ethylthio]-1-(4-phenoxybenzyl)pyrrolidine-2,5-dione] stands > 10000 nM.
Still for that read-out and setting: the same measure for `O=C1CC(SCc2ccccc2)C(=O)N1Cc1ccc(Oc2ccccc2)cc1` (stereo not shown) [Example 4, 3-Benzylthio-1-(4-phenoxybenzyl)pyrrolidine-2,5-dione]: > 10000 nM.
In the case of `CC(=O)SC1CC(=O)N(Cc2ccc(Oc3ccccc3)cc2)C1=O` (stereo not shown) [Example 5, 3-Acetylthio-1-(4-phenoxybenzyl)pyrrolidine-2,5-dione], the IC50 amounted to 30 nM.
With `O=C(SC1CC(=O)N(Cc2ccc(Oc3ccccc3)cc2)C1=O)c1ccccc1` (stereo not shown) [Example 6, 3-Benzoylthio-1-(4-phenoxybenzyl)pyrrolidine-2,5-dione], the IC50 worked out at 2 nM.
Same read-out and setting: under `CC(=O)SCC1CC(=O)N(Cc2ccc(Oc3ccccc3)cc2)C1=O` (stereo not shown) [Example 10, 3-Acethylmethyl-1-(4-phenoxybenzyl)pyrrolidine-2,5-dione] stands 400 nM.
With `O=C1CC(SSCC2CCCO2)C(=O)N1Cc1ccc(Oc2ccccc2)cc1` (stereo not shown) [Example 11, 3-[(Tetrahydro-2-furanyl)methyldithio]-1-(4-phenoxybenzyl)pyrrolidine-2,5-dione], the IC50 was 100 nM.

Still in this assay, the particulars now being: Table 2; 37° C., 2 hours.
On to `CC(=O)SC1C(=O)N(Cc2ccc(Oc3ccccc3)cc2)C(=O)C1C` (stereo not shown) [Example 7, 3-Acetylthio-4-methyl-1-(4-phenoxybenzyl)pyrrolidine-2,5-dione], for which the IC50 turned out to be 50 nM.
The same measure, in the same setting: under `CC1C(=O)N(Cc2ccc(Oc3ccccc3)cc2)C(=O)C1S` (stereo not shown) [Example 8, 3-Mercapto-4-methyl-1-(4-phenoxybenzyl)pyrrolidine-2,5-dione] stands 20 nM; under `COC(=O)CCSC1C(=O)N(Cc2ccc(Oc3ccccc3)cc2)C(=O)C1O` (stereo not shown) [Example 9, 3-Hydroxy-4-[2-(methoxycarbonyl)ethylthio]-1-(4-phenoxybenzyl)pyrrolidine-2,5-dione], 1000 nM.

The same assay, now with this note: Table 3; 37° C., 2 hours.
With `CC(=O)SC1CC(=O)N(Cc2ccc(Oc3ccccc3)cc2)C1` (stereo not shown) [Example 15, 4-Acetylthio-1-(4-phenoxybenzyl)pyrrolidin-2-one], the IC50 was determined as 10 nM.
Turning to `O=C(SC1CC(=O)N(Cc2ccc(Oc3ccccc3)cc2)C1)c1ccccc1` (stereo not shown) [Example 16, 4-Benzoylthio-1-(4-phenoxybenzyl)pyrrolidin-2-one], the IC50 turned out to be 2 nM.
Still for that read-out and setting: under `O=C1CC(S)CN1Cc1ccc(Oc2ccccc2)cc1` (stereo not shown) [Example 17, 4-Mercapto-1-(4-phenoxybenzyl)pyrrolidin-2-one] stands 5 nM; under `CC(C)(C)C(=O)OCSC1CC(=O)N(Cc2ccc(Oc3ccccc3)cc2)C1` (stereo not shown) [Example 18, 4-Pivaloyloxymethylthio-1-(4-phenoxybenzyl)pyrrolidin-2-one], 30 nM.
Consider `CC(=O)S[C@H]1CC(=O)N(Cc2ccc(Oc3ccccc3)cc2)C1` [Example 21, (S)-4-Acetylthio-1-(4-phenoxybenzyl)pyrrolidin-2-one], for which the IC50 is 4000 nM.
Regarding `O=C1C[C@H](S)CN1Cc1ccc(Oc2ccccc2)cc1` [Example 22, (S)-4-Mercapto-1-(4-phenoxybenzyl)pyrrolidin-2-one], the IC50 is 300 nM.

The same assay, now with this note: Table 5; 37° C., 2 hours.
On to `CC(=O)S[C@@H]1CC(=O)N(Cc2ccc(Oc3ccccc3)cc2)[C@H]1COCc1ccccc1` (relative stereo) [Example 38, Trans-4-acetylthio-5-benzyloxymethyl-1-(4-phenoxybenzyl)pyrrolidin-2-one], for which the IC50 was found to be 5 nM.
Still for that read-out and setting: under `CC(=O)S[C@@H]1CC(=O)N(Cc2ccc(Oc3ccccc3)cc2)[C@H]1CC(C)C` (relative stereo) [Example 179, trans-4-Acetylthio-5-isobutyl-1-(4-phenoxybenzyl)pyrrolidin-2-one] stands 9 nM; under `CC(C)C[C@H]1[C@H](S)CC(=O)N1Cc1ccc(Oc2ccccc2)cc1` (relative stereo) [Example 180, trans-5-Isobutyl-4-mercapto-1-(4-phenoxybenzyl)pyrrolidin-2-one], 20 nM; under `CC(=O)S[C@@H]1CC(=O)N(Cc2ccc(Oc3ccccc3)cc2)[C@H]1Cc1ccccc1` (relative stereo) [Example 181, trans-4-Acetylthio-5-benzyl-1-(4-phenoxybenzyl)pyrrolidin-2-one], 8 nM.
For `O=C1C[C@@H](S)[C@H](Cc2ccccc2)N1Cc1ccc(Oc2ccccc2)cc1` (relative stereo) [Example 182, trans-5-Benzyl-4-mercapto-1-(4-phenoxybenzyl)pyrrolidin-2-one], the IC50 was found to be 20 nM.
On the same count and under the same terms, the same measure for `CCCNC(=O)OC[C@H]1[C@H](SC(C)=O)CC(=O)N1Cc1ccc(Oc2ccccc2)cc1` (relative stereo) [Example 183, trans-4-Acetylthio-5-propylaminocarbonyloxymethyl-1-(4-phenoxybenzyl)pyrrolidin-2-one]: 20 nM; for `CCCNC(=O)OC[C@H]1[C@H](S)CC(=O)N1Cc1ccc(Oc2ccccc2)cc1` (relative stereo) [Example 184, trans-4-Mercapto-5-propylaminocarbonyloxymethyl-1-(4-phenoxybenzyl)pyrrolidin-2-one]: 2.3 nM; for `CC(=O)S[C@@H]1CC(=O)N(Cc2ccc(Oc3ccccc3)cc2)[C@H]1COC1CCCCO1` (relative stereo) [Example 185, trans-4-Acetylthio-5-(tetrahydro-2H-pyran-2-yl)oxymethyl-1-(4-phenoxybenzyl)pyrrolidin-2-one]: 6 nM.
Regarding `CCOC(=O)CNC(=O)[C@H]1[C@H](SC(C)=O)CC(=O)N1Cc1ccc(Oc2ccccc2)cc1` (relative stereo) [Example 186, trans-4-Acetylthio-5-ethoxycarbonylmethylaminocarbonyl-1-(4-phenoxybenzyl)pyrrolidin-2-one], the IC50 came out at 50 nM.
The same measure, in the same setting: the same measure for `CC(=O)S[C@@H]1CC(=O)N(Cc2ccc(Oc3ccccc3)cc2)[C@H]1C(=O)NCCO` (relative stereo) [Example 189, trans-4-Acetylthio-5-(2-hydroxyethyl)aminocarbonyl-1-(4-phenoxybenzyl)pyrrolidin-2-one]: 89 nM; for `O=C(NCCO)[C@H]1[C@H](S)CC(=O)N1Cc1ccc(Oc2ccccc2)cc1` (relative stereo) [Example 190, trans-5-(2-Hydroxyethyl)aminocarbonyl-4-mercapto-1-(4-phenoxybenzyl)pyrrolidin-2-one]: 25 nM.
Same read-out and setting: the same measure for `CC(=O)S[C@@H]1CC(=O)N(Cc2ccc(Oc3ccccc3)cc2)[C@H]1C(=O)NCc1ccncc1` (relative stereo) [Example 191, trans-4-Acetylthio-5-(4-pyridylmethyl)aminocarbonyl-1-(4-phenoxybenzyl)pyrrolidin-2-one]: 120 nM; for `O=C(NCc1ccncc1)[C@H]1[C@H](S)CC(=O)N1Cc1ccc(Oc2ccccc2)cc1` (relative stereo) [Example 192, trans-4-Mercapto-5-(4-pyridylmethyl)aminocarbonyl-1-(4-phenoxybenzyl)pyrrolidin-2-one]: 19 nM; for `CC(=O)SC1CC(=O)N(Cc2ccc(Oc3ccccc3)cc2)C1CO` (stereo not drawn) [Example 20, Trans-4-acetylthio-5-hydroxymethyl-1-(4-phenoxybenzyl)pyrrolidin-2-one]: 10 nM.

The same assay, now with this note: Table 7; 37° C., 2 hours.
Take `O=C1CC(SSC2CC(=O)N(Cc3ccc(Oc4ccccc4)cc3)C2=O)C(=O)N1Cc1ccc(Oc2ccccc2)cc1` (stereo not shown) [Example 12]: the IC50 was determined as 9 nM.
Regarding `O=C1CC(CSSCC2CC(=O)N(Cc3ccc(Oc4ccccc4)cc3)C2=O)C(=O)N1Cc1ccc(Oc2ccccc2)cc1` (stereo not shown) [Example 13, 3,3′-[Dithiobis(methylene)]bis[1-(4-phenoxybenzyl)pyrrolidine-2,5-dione]], the concentration for half-maximal inhibition (IC50) was > 10000 nM.
Still for that read-out and setting: the same measure for `O=C1CC(SC2CC(=O)N(Cc3ccc(Oc4ccccc4)cc3)C2=O)C(=O)N1Cc1ccc(Oc2ccccc2)cc1` (stereo not shown) [Example 14]: 100 nM; for `O=C1CC(SSC2CC(=O)N(Cc3ccc(Oc4ccccc4)cc3)C2)CN1Cc1ccc(Oc2ccccc2)cc1` (stereo not shown) [Example 19, 4,4′-Dithiobis[1-(4-phenoxybenzyl)pyrrolidin-2-one]]: 200 nM; for `O=C1C[C@H](SS[C@H]2CC(=O)N(Cc3ccc(Oc4ccccc4)cc3)C2)CN1Cc1ccc(Oc2ccccc2)cc1` [Example 23, (4S,4′S)-4,4′-Dithiobis[1-(4-phenoxybenzyl)pyrrolidin-2-one]]: > 10000 nM.

Staying with this assay, now noted: Table 9; 37° C., 2 hours.
Regarding “4-Acetylthio-1-[4-(2′-fluorophenoxy)benzyl]pyrrolidin-2-one [Example 112]”, the IC50 turned out to be 20 nM.

(Values after patent publication US6953789B2, “Thiol compounds, their production and use” (Takeda Chemical Industries, Ltd., priority 1998, dated 2005).)
